No end group written: not given here.
test system: serum samples from patients infected with group O HIV-1 retroviruses; assay: Immunoenzymatic test: Test No. 2 (immunoreactivity with diluted sera); type: binding, human; conditions: CLASS A (a: OD<0.100); sera of Table V; solid phase peptide 2 μg/ml
Source text: The serum samples from patients infected with group O HIV-1 retroviruses were obtained by the Yaounde Pasteur Centre in Cameroon and were serotyped group O according to the serological algorithm described in AIDS (1977), 11, pp. 445-453. A genotyped sample (Maryland) is obtained from the United States. These samples were previously diluted in negative human serum at the dilutions given in Table V, in order to have a sufficient volume for the different immunoreactivity tests.
The synthetic peptides used were dissolved in water at a concentration of 1 mg/ml (stock solution). For the solid phase sensitization step (“coating”), the procedure was carried out as described for Example 2.
The serum samples were diluted 1/5 with a skimmed milk solution (citrate buffer supplemented with 0.01% of phenol red, 0.25% of chloroform and 0.25% of Kathon®), deposited in the wells of plates and incubated for 30 min at 40° C.
After washing with a Tris-NaCl buffer solution pH 7.4 containing 0.1% of Tween® 20 and 0.001% of sodium merthiolate, 100 μl of a solution of conjugate consisting of horseradish peroxidase-labelled anti-human IgG and IgM goat antibodies, containing as preservative 0.01% of sodium merthiolate, in solution in a citrate buffer solution supplemented with 30% glycerol and 25% normal foetal calf serum, were added to each well of the plates and then they were incubated for 30 min at 40° C.
After washing with a Tris-NaCl buffer solution pH 7.4 containing 0.1% of Tween® 20 and 0.001% of sodium merthiolate, the colour was developed as described in Example 2.
The relative absorbance (OD) (A490-A620) read in each well is proportional to the immunoreactivity of each peptide. It indicates the ability of each peptide to react with the biological sample with which the test is carried out.
The reactivity of the peptides of the invention, peptides No. 10 (14B), No. 11 (18B), No. 12 (19B), No. 14 (21B), No. 15 (22B), No. 16 (23B) all in cyclized form, was compared with that of three homologous synthetic peptides having, as sequence, a portion of the natural sequence of the envelope (env) of a group O HIV-1 retrovirus. These peptides are two peptides derived from the VAU isolate—the peptide VAU 22 AA and the peptide VAU 35 AA—and the peptide MVP 5180 (designated “MVP 5180” in Table V). The peptides VAU 22 AA and VAU 35 AA (whose structure is indicated in Example 2) and the peptide MVP 5180 comprise an immunodominant epitope of gp41.
All these peptides were used in cyclized form. The sequence of the MVP 5180 peptide is the following:
For each peptide tested, the samples were arranged into four classes (a, b, c and d) corresponding to various levels of relative absorbance read at the wavelengths A492-A620: • for a: OD<0.100, • for b: 0.100<OD<0.500, • for c: 0.500<OD<1.000, • for d: OD>1.000, thus making it possible to evaluate the degree of immunoreactivity of the peptides.

Sequence	Number of samples
RLNSWGCKGRLVCYTSV [PEPTIDE No. 16 (23B)]	2
ALETLLQNQQLLNIWGCRGRLVCYTSVRWNET [PEPTIDE No. 12 (19B)]	0
RLQALETLIQNQQRLNLWGCKGKLICYTSVKWNTS (cysteine pairing not given here) [MVP 5180, reference compound]	1

same assay, conditions: CLASS B (b: 0.100<OD<0.500); sera of Table V; solid phase peptide 2 μg/ml

Sequence	Number of samples
RLNSWGCKGRLVCYTSV [PEPTIDE No. 16 (23B)]	2
ALETLLQNQQLLNIWGCRGRLVCYTSVRWNET [PEPTIDE No. 12 (19B)]	11
RLQALETLIQNQQRLNLWGCKGKLICYTSVKWNTS (cysteine pairing not given here) [MVP 5180, reference compound]	12

same assay, conditions: CLASS C (c: 0.500<OD<1.000); sera of Table V; solid phase peptide 2 μg/ml

Sequence	Number of samples
RLNSWGCKGRLVCYTSV [PEPTIDE No. 16 (23B)]	1
ALETLLQNQQLLNIWGCRGRLVCYTSVRWNET [PEPTIDE No. 12 (19B)]	2
RLQALETLIQNQQRLNLWGCKGKLICYTSVKWNTS (cysteine pairing not given here) [MVP 5180, reference compound]	1

same assay, conditions: CLASS D (d: OD>1.000); sera of Table V; solid phase peptide 2 μg/ml

Sequence	Number of samples
RLNSWGCKGRLVCYTSV [PEPTIDE No. 16 (23B)]	9
ALETLLQNQQLLNIWGCRGRLVCYTSVRWNET [PEPTIDE No. 12 (19B)]	1
RLQALETLIQNQQRLNLWGCKGKLICYTSVKWNTS (cysteine pairing not given here) [MVP 5180, reference compound]	0

same assay, conditions: serum 258 OUDI at 1/100; solid phase peptide 2 μg/ml, cyclized

Sequence	ABSORBANCE (OD)
RLNSWGCKGRLVCYTSV [PEPTIDE No. 16 (23B)]	1.692
ALETLLQNQQLLNIWGCRGRLVCYTSVRWNET [PEPTIDE No. 12 (19B)]	0.226
RLQALETLIQNQQRLNLWGCKGKLICYTSVKWNTS (cysteine pairing not given here) [MVP 5180, reference compound]	0.116

same assay, conditions: serum 625 at 1/50; solid phase peptide 2 μg/ml, cyclized

Sequence	ABSORBANCE (OD)
RLNSWGCKGRLVCYTSV [PEPTIDE No. 16 (23B)]	1.791
ALETLLQNQQLLNIWGCRGRLVCYTSVRWNET [PEPTIDE No. 12 (19B)]	0.264
RLQALETLIQNQQRLNLWGCKGKLICYTSVKWNTS (cysteine pairing not given here) [MVP 5180, reference compound]	0.202

same assay, conditions: serum 3600 at 1/100; solid phase peptide 2 μg/ml, cyclized

Sequence	ABSORBANCE (OD)
RLNSWGCKGRLVCYTSV [PEPTIDE No. 16 (23B)]	0.933
ALETLLQNQQLLNIWGCRGRLVCYTSVRWNET [PEPTIDE No. 12 (19B)]	0.249
RLQALETLIQNQQRLNLWGCKGKLICYTSVKWNTS (cysteine pairing not given here) [MVP 5180, reference compound]	0.206

same assay, conditions: serum 3613 at ¼00; solid phase peptide 2 μg/ml, cyclized

Sequence	ABSORBANCE (OD)
RLNSWGCKGRLVCYTSV [PEPTIDE No. 16 (23B)]	1.679
ALETLLQNQQLLNIWGCRGRLVCYTSVRWNET [PEPTIDE No. 12 (19B)]	0.773
RLQALETLIQNQQRLNLWGCKGKLICYTSVKWNTS (cysteine pairing not given here) [MVP 5180, reference compound]	0.478

same assay, conditions: serum 3653 at 1/10; solid phase peptide 2 μg/ml, cyclized

Sequence	ABSORBANCE (OD)
RLNSWGCKGRLVCYTSV [PEPTIDE No. 16 (23B)]	0.406
ALETLLQNQQLLNIWGCRGRLVCYTSVRWNET [PEPTIDE No. 12 (19B)]	0.247
RLQALETLIQNQQRLNLWGCKGKLICYTSVKWNTS (cysteine pairing not given here) [MVP 5180, reference compound]	0.401

same assay, conditions: serum 4280 at 1/50; solid phase peptide 2 μg/ml, cyclized

Sequence	ABSORBANCE (OD)
RLNSWGCKGRLVCYTSV [PEPTIDE No. 16 (23B)]	0.033
ALETLLQNQQLLNIWGCRGRLVCYTSVRWNET [PEPTIDE No. 12 (19B)]	0.201
RLQALETLIQNQQRLNLWGCKGKLICYTSVKWNTS (cysteine pairing not given here) [MVP 5180, reference compound]	0.382

same assay, conditions: serum 6111 at 1/100; solid phase peptide 2 μg/ml, cyclized

Sequence	ABSORBANCE (OD)
RLNSWGCKGRLVCYTSV [PEPTIDE No. 16 (23B)]	1.009
ALETLLQNQQLLNIWGCRGRLVCYTSVRWNET [PEPTIDE No. 12 (19B)]	0.202
RLQALETLIQNQQRLNLWGCKGKLICYTSVKWNTS (cysteine pairing not given here) [MVP 5180, reference compound]	0.226

same assay, conditions: serum DJOU at 1/100; solid phase peptide 2 μg/ml, cyclized

Sequence	ABSORBANCE (OD)
RLNSWGCKGRLVCYTSV [PEPTIDE No. 16 (23B)]	2.166
ALETLLQNQQLLNIWGCRGRLVCYTSVRWNET [PEPTIDE No. 12 (19B)]	0.419
RLQALETLIQNQQRLNLWGCKGKLICYTSVKWNTS (cysteine pairing not given here) [MVP 5180, reference compound]	0.203

same assay, conditions: serum DO15 at 1/100; solid phase peptide 2 μg/ml, cyclized

Sequence	ABSORBANCE (OD)
RLNSWGCKGRLVCYTSV [PEPTIDE No. 16 (23B)]	3.038
ALETLLQNQQLLNIWGCRGRLVCYTSVRWNET [PEPTIDE No. 12 (19B)]	1.286
RLQALETLIQNQQRLNLWGCKGKLICYTSVKWNTS (cysteine pairing not given here) [MVP 5180, reference compound]	0.673

same assay, conditions: serum MBASSI at 1/100; solid phase peptide 2 μg/ml, cyclized

Sequence	ABSORBANCE (OD)
RLNSWGCKGRLVCYTSV [PEPTIDE No. 16 (23B)]	2.683
ALETLLQNQQLLNIWGCRGRLVCYTSVRWNET [PEPTIDE No. 12 (19B)]	0.747
RLQALETLIQNQQRLNLWGCKGKLICYTSVKWNTS (cysteine pairing not given here) [MVP 5180, reference compound]	0.248

same assay, conditions: serum Maryland at ¼00; solid phase peptide 2 μg/ml, cyclized

Sequence	ABSORBANCE (OD)
RLNSWGCKGRLVCYTSV [PEPTIDE No. 16 (23B)]	1.229
ALETLLQNQQLLNIWGCRGRLVCYTSVRWNET [PEPTIDE No. 12 (19B)]	0.285
RLQALETLIQNQQRLNLWGCKGKLICYTSVKWNTS (cysteine pairing not given here) [MVP 5180, reference compound]	0.241

same assay, conditions: serum NGO at 1/50; solid phase peptide 2 μg/ml, cyclized

Sequence	ABSORBANCE (OD)
RLNSWGCKGRLVCYTSV [PEPTIDE No. 16 (23B)]	0.110
ALETLLQNQQLLNIWGCRGRLVCYTSVRWNET [PEPTIDE No. 12 (19B)]	0.193
RLQALETLIQNQQRLNLWGCKGKLICYTSVKWNTS (cysteine pairing not given here) [MVP 5180, reference compound]	0.184

same assay, conditions: serum NJEM at 1/100; solid phase peptide 2 μg/ml, cyclized

Sequence	ABSORBANCE (OD)
RLNSWGCKGRLVCYTSV [PEPTIDE No. 16 (23B)]	0.025
ALETLLQNQQLLNIWGCRGRLVCYTSVRWNET [PEPTIDE No. 12 (19B)]	0.391
RLQALETLIQNQQRLNLWGCKGKLICYTSVKWNTS (cysteine pairing not given here) [MVP 5180, reference compound]	0.146

same assay, conditions: serum WANG at 1/50; solid phase peptide 2 μg/ml, cyclized

Sequence	ABSORBANCE (OD)
RLNSWGCKGRLVCYTSV [PEPTIDE No. 16 (23B)]	1.290
ALETLLQNQQLLNIWGCRGRLVCYTSVRWNET [PEPTIDE No. 12 (19B)]	0.124
RLQALETLIQNQQRLNLWGCKGKLICYTSVKWNTS (cysteine pairing not given here) [MVP 5180, reference compound]	0.075

same assay, conditions: summary of Tables V and VI

Sequence	immunoreactivity compared with the reference peptides (in words)
RLNSWGCKGRLVCYTSV [PEPTIDE No. 16 (23B)]	most immunoreactive

Reference: patent publication US7053175B1, “Synthetic peptides useful in biological assays for detecting infections caused by group O HIV-1 viruses” (Bio-Rad Pasteur, priority 1997, dated 2006)
